Source: PMC6664396, “A golden opportunity: benzofuranone modifications of aurones and their influence on optical properties, toxicity, and potential as dyes” (Beilstein Journal of Organic Chemistry, 2019)

Legend:
[1] = test system: Hep G2 human liver cancer cells; test: Hep G2 cytotoxicity assay (MTT); type: cell-based; conditions: for % Inhibition: Hep G2 MTT absorbance relative to vehicle
Procedure: An initial screening of toxicity was conducted at a fairly high concentration (200 μM) on the present series of compounds using a standard HEP G2 inhibition assay (Table 1). Compared to a currently used yellow dye (tartrazine), the aurones are similar to more toxic. Within the aurone series, though, an interesting pair of trends can be observed. First, all hydroxylated aurones are comparatively more toxic, displaying >50% inhibition at 200 μM. Methyl groups are similarly mostly more toxic. For the halogens, however, location is fairly important, with the 6 or 7 position being much less toxic (similar to tartrazine) and dramatically better than the unsubstituted base compound 1, with the unexpected exception of 7-bromo compound 10. Whether this trend is general or not for aurone compounds is an interesting question for future study.
Hep G2 cytotoxicity assay
Hep G2 human liver cancer cells were cultured in phenol red Dulbecco’s
Modified Eagle Medium (DMEM) with 10% fetal bovine serum (FBS) and 1% Pen-strep (PSG) under 37°C and 5% CO2 atmospheric conditions. The cells were washed with phosphate buffered saline (PBS) and diluted with phenol red free DMEM to a concentration between 200,000 to 250,000 cells/mL. The cells we re distributed in a 96-well plate with each well containing 100 µL of the cell solution and were allowed to settle for 2 hours in the incubator. The cells were then treated with 200 µM of the aurones in DMSO and the known dyes in 10:90 (v:v) DMSO/ultrapure water in triplicates and were left in the incubator for 3 days. The vehicles were used as the negative controls (DMSO for the aurones and 10:90 DMSO:ultrapure water for the known dyes). 20 µL of 5 mg/mL MTT (3-(4,5-dimethylthiazol-2-yl)-2,5-diphenyltetrazolium bromide) was added to each well containing treated cells after the 3-day incubation period and was allowed to settle in the incubator for 3.5 more hours. Finally, the media was removed from the wells and replaced by 100 µL of DMSO to lyse the cells and dissolve the formazan crystals that were formed. The absorbance was then recorded on the SpectraMax M5 Multi -Mode Microplate Reader. The procedure was repeated two more times using different batches of cultured Hep G2 cells on different days. […]

[2] = UV–vis spectra in acetonitrile (λmax, extinction coefficient); type: physicochemical; parameters: λmax: unit: nm; conditions: for dissolution for ε determination: in CH3CN, printed in the ε column
Procedure: With the desired compounds in hand, their UV–visible spectra were recorded at concentrations between 29 and 44 μM in acetonitrile (Figure 3 and Table 1). While not all substituents were prepared at every position, some interesting trends were observed. Substitution at the 4-position whether halogen or hydroxy afforded essentially identical lambda maxima (390 nm), slighly red-shifted compared to the unsubstituted compound 1. On the other hand, hydroxy groups at the 6-position result in a significant blue shift of this lambda max by roughly 40 nm to around 338 nm, presumably due to their donating effect and conjugation with the carbonyl oxygen. […] On the other hand, substitution at the 7-position had virtually no effect, which is to be expected due to the lack of direct conjugation with the carbonyl as well as the only modest electronic effects of alkyl, chlorine, and bromine. In general, the substituent effects are all fairly modest and result in fairly moderate changes in the extinction coefficient (although hydroxy substitution does definitely increase this value by roughly 50%).

Cc1ccc(/C=C2\Oc3c(ccc(O)c3C)C2=O)cc1 [Compound 17]
Hep G2 % inhibition ([1]; 200 μM concentration of compound, 3 days incubation, MTT readout): 78.58 ± 7.11% | % Inhibition ([1]; Triplicate 1): 77.81% | % Inhibition ([1]; Triplicate 2): 74.71% | % Inhibition ([1]; Triplicate 3): 83.21% | λmax ([2]; UV–vis spectra determined in CH3CN): 336 nm | dissolution for ε determination [2]: will not dissolve completely | dissolution for ε determination ([2]; listed as 6OH7Me): will not dissolve | λmax ([2]; supplement sheet Tabular ε Data, unit not given): 336
